Laboratory results as given in patent US6737383B1, “Herbicidal oxadiazolidines” (priority 1999, dated 2004).

Key:
velvetleaf = assay: Test B pre/postemergence velvetleaf; format: in vivo, Abutilon theophrasti
Summary of the method: (§1)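 Test chemicals in a non-phytotoxic solvent mixture with surfactant were sprayed preemergence onto planted seeds and postemergence onto plants 2 to 18 cm tall (1- to 4-leaf stage). After twelve to sixteen days in a greenhouse, injury was visually rated against untreated controls from 0 (no effect) to 10 (complete control).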

wheat = assay: Test B pre/postemergence wheat; format: in vivo, Triticum aestivum
Summary of the method: as §1

rice = assay: Test B flood test rice; format: in vivo, Oryza sativa
Summary of the method: (§2)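 Flood test on plants grown to the 2-leaf stage; treated plants kept in greenhouse twelve to sixteen days, then visually rated against controls on a 0 (no effect) to 10 (complete control) scale.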

corn = assay: Test B pre/postemergence corn; format: in vivo, Zea mays
Summary of the method: as §1

cocklebur = assay: Test B pre/postemergence cocklebur; format: in vivo, Xanthium strumarium
Summary of the method: as §1

bedstraw = assay: Test B pre/postemergence bedstraw; format: in vivo, Galium aparine
Summary of the method: as §1

duck salad = assay: Test B flood test duck salad; format: in vivo, Heteranthera limosa
Summary of the method: as §2

blackgrass = assay: Test B pre/postemergence blackgrass; format: in vivo, Alopecurus myosuroides
Summary of the method: as §1

surinam grass = assay: Test B pre/postemergence surinam grass; format: in vivo, Brachiaria decumbens
Summary of the method: as §1

sugar beet = assay: Test B pre/postemergence sugar beet; format: in vivo, Beta vulgaris
Summary of the method: as §1

soybean = assay: Test B pre/postemergence soybean; format: in vivo, Glycine max
Summary of the method: as §1

rape = assay: Test B pre/postemergence rape; format: in vivo, Brassica napus
Summary of the method: as §1

smallflower flatsedge = assay: Test B flood test smallflower flatsedge; format: in vivo, Cyperus difformis
Summary of the method: as §2

bamyardgrass = assay: Test B flood test barnyardgrass; format: in vivo, Echinochloa crus-galli
Summary of the method: as §2

crabgrass = assay: Test B pre/postemergence crabgrass; format: in vivo, Digitaria sanguinalis
Summary of the method: as §1

wild oat = assay: Test B pre/postemergence wild oat; format: in vivo, Avena fatua
Summary of the method: as §1

purple nutsedge = assay: Test B pre/postemergence purple nutsedge; format: in vivo, Cyperus rotundus
Summary of the method: as §1

[1] = Preemergence, Rate 62 g/ha, scale of 0 to 10 where 0 is no effect and 10 is complete control
[2] = Preemergence, Rate 250 g/ha, scale of 0 to 10 where 0 is no effect and 10 is complete control
[3] = Preemergence, Rate 500 g/ha, scale of 0 to 10 where 0 is no effect and 10 is complete control
[4] = Rate 125 g/ha, Postemergence, scale of 0 to 10 where 0 is no effect and 10 is complete control
[5] = Rate 125 g/ha, Preemergence, scale of 0 to 10 where 0 is no effect and 10 is complete control
[6] = Rate 250 g/ha, Postemergence, scale of 0 to 10 where 0 is no effect and 10 is complete control
[7] = Rate 500 g/ha, Postemergence, scale 0 to 10, 0 no effect, 10 complete control
[8] = Rate 62 g/ha, headed Pre-emergence (flood test species), scale 0 to 10 (0 no effect, 10 complete control)
[9] = Rate 125 g/ha, Pre-emergence, flood test species, scale 0 to 10 where 0 is no effect and 10 is complete control
[10] = Rate 250 g/ha, Pre-emergence, flood-test species, scale 0 to 10, 0 is no effect, 10 is complete control
[11] = Rate 500 g/ha, Pre-emergence, flood test species, scale 0 to 10 (0 no effect, 10 complete control)
[12] = Rate 62 g/ha, Postemergence, scale of 0 to 10 where 0 is no effect and 10 is complete control

Cc1ccccc1-n1c(=O)on(C(=O)N(c2cccc(F)c2)C(C)C)c1=O [Compound 269]
Velvetleaf plant response rating (velvetleaf; [1]): 0 | Velvetleaf plant response rating (velvetleaf; [2]): 0 | Plant response rating, Velvetleaf (velvetleaf; [3]): 0 | Velvetleaf plant response rating (velvetleaf; [4]): 0 | Velvetleaf plant response rating (velvetleaf; [5]): 0 | Plant response rating, Velvetleaf (velvetleaf; [6]): 3 | Velvetleaf plant response rating (velvetleaf; [7]): 3 | Wheat plant response rating (wheat; [1]): 0 | Wheat plant response rating (wheat; [2]): 0 | Plant response rating, Wheat (wheat; [3]): 0 | Wheat plant response rating (wheat; [4]): 0 | Wheat plant response rating (wheat; [5]): 0 | Plant response rating, Wheat (wheat; [6]): 2 | Wheat plant response rating (wheat; [7]): 4 | Rice plant response rating (rice; [8]): 0 | Rice plant response rating (rice; [9]): 0 | Rice plant response rating (rice; [10]): 0 | Rice plant response rating (rice; [11]): 0 | Corn plant response rating (corn; [1]): 0 | Corn plant response rating (corn; [2]): 0 | Plant response rating, Corn (corn; [3]): 0 | Corn plant response rating (corn; [12]): 0 | Corn plant response rating (corn; [4]): 0 | Corn plant response rating (corn; [5]): 0 | Plant response rating, Corn (corn; [6]): 0 | Corn plant response rating (corn; [7]): 0 | Cocklebur plant response rating (cocklebur; [1]): 0 | Cocklebur plant response rating (cocklebur; [2]): 0 | Plant response rating, Cocklebur (cocklebur; [3]): 0 | Cocklebur plant response rating (cocklebur; [12]): 0 | Plant response rating, Cocklebur (cocklebur; [6]): 1 | Cocklebur plant response rating (cocklebur; [7]): 2 | Bedstraw plant response rating (bedstraw; [1]): 0 | Bedstraw plant response rating (bedstraw; [2]): 0 | Plant response rating, Bedstraw (bedstraw; [3]): 0 | Bedstraw plant response rating (bedstraw; [4]): 4 | Bedstraw plant response rating (bedstraw; [5]): 0 | Plant response rating, Bedstraw (bedstraw; [6]): 4 | Bedstraw plant response rating (bedstraw; [7]): 7 | Ducksalad plant response rating (duck salad; [8]): 0 | Ducksalad plant response rating (duck salad; [9]): 0 | Ducksalad plant response rating (duck salad; [10]): 0 | Ducksalad plant response rating (duck salad; [11]): 0 | Blackgrass plant response rating (blackgrass; [1]): 0 | Blackgrass plant response rating (blackgrass; [2]): 3 | Plant response rating, Blackgrass (blackgrass; [3]): 7 | Blackgrass plant response rating (blackgrass; [12]): 0 | Blackgrass plant response rating (blackgrass; [4]): 0 | Blackgrass plant response rating (blackgrass; [5]): 2 | Plant response rating, Blackgrass (blackgrass; [6]): 2 | Blackgrass plant response rating (blackgrass; [7]): 5 | B. signalgrass plant response rating (surinam grass; [1]): 0 | B. signalgrass plant response rating (surinam grass; [2]): 6 | Plant response rating, B. signalgrass (surinam grass; [3]): 7 | B. signalgrass plant response rating (surinam grass; [12]): 0 | B. signalgrass plant response rating (surinam grass; [4]): 0 | B. signalgrass plant response rating (surinam grass; [5]): 6 | Plant response rating, B. signalgrass (surinam grass; [6]): 0 | B. signalgrass plant response rating (surinam grass; [7]): 0 | Sugarbeets plant response rating (sugar beet; [1]): 0 | Sugarbeets plant response rating (sugar beet; [2]): 0 | Plant response rating, Sugarbeets (sugar beet; [3]): 4 | Sugarbeets plant response rating (sugar beet; [4]): 0 | Sugarbeets plant response rating (sugar beet; [5]): 0 | Plant response rating, Sugarbeets (sugar beet; [6]): 0 | Sugarbeets plant response rating (sugar beet; [7]): 0 | Soybean plant response rating (soybean; [1]): 0 | Soybean plant response rating (soybean; [2]): 0 | Plant response rating, Soybean (soybean; [3]): 4 | Soybean plant response rating (soybean; [4]): 1 | Soybean plant response rating (soybean; [5]): 0 | Plant response rating, Soybean (soybean; [6]): 3 | Soybean plant response rating (soybean; [7]): 3 | Rape plant response rating (rape; [1]): 0 | Rape plant response rating (rape; [2]): 0 | Plant response rating, Rape (rape; [3]): 0 | Rape plant response rating (rape; [4]): 0 | Rape plant response rating (rape; [5]): 0 | Plant response rating, Rape (rape; [6]): 0 | Rape plant response rating (rape; [7]): 0 | S. Flatsedge plant response rating (smallflower flatsedge; [8]): 0 | S. Flatsedge plant response rating (smallflower flatsedge; [9]): 0 | S. Flatsedge plant response rating (smallflower flatsedge; [10]): 0 | S. Flatsedge plant response rating (smallflower flatsedge; [11]): 0 | Barnyardgrass plant response rating (bamyardgrass; [8]): 0 | Barnyardgrass plant response rating (bamyardgrass; [9]): 0 | Barnyardgrass plant response rating (bamyardgrass; [10]): 0 | Barnyardgrass plant response rating (bamyardgrass; [11]): 0 | Crabgrass plant response rating (crabgrass; [1]): 0 | Crabgrass plant response rating (crabgrass; [2]): 3 | Plant response rating, Crabgrass (crabgrass; [3]): 6 | Crabgrass plant response rating (crabgrass; [4]): 0 | Crabgrass plant response rating (crabgrass; [5]): 2 | Plant response rating, Crabgrass (crabgrass; [6]): 0 | Crabgrass plant response rating (crabgrass; [7]): 1 | Wild oats plant response rating (wild oat; [1]): 0 | Wild oats plant response rating (wild oat; [2]): 2 | Plant response rating, Wild oats (wild oat; [3]): 4 | Wild oats plant response rating (wild oat; [4]): 0 | Plant response rating, Wild oats (wild oat; [6]): 0 | Wild oats plant response rating (wild oat; [7]): 3 | Nutsedge plant response rating (purple nutsedge; [1]): 0 | Nutsedge plant response rating (purple nutsedge; [4]): 0 | Nutsedge plant response rating (purple nutsedge; [5]): 0 | Plant response rating, Nutsedge (purple nutsedge; [6]): 0 | Nutsedge plant response rating (purple nutsedge; [7]): 0
